Measured values reported in US8088892B2, “Inhibitors of proteins from the Rho-GEF family” (Centre National de la Recherche Scientifique (C.N.R.S.), priority 2002, dated 2012).
Where no end group is shown, it is not given here.

Columns and labels:
Type in all cases: cell-based
[1] = system: NGF-differentiated PC12 cells; experiment: Serum-induced neurite retraction; settings: 15 min after serum (10% HS and 5% FCS); NGF 50 ng/ml 16 hours
Procedure: FIG. 6A represents histograms quantifying the effects of GFP-TRIPα or GFP on serum induced neurite retraction in NGF-differentiated PC12 cells. The X-axis represents the time after serum addition in minutes and the Y-axis represents the percentage of transfected cells with neurites.
Cells were transfected with GFP-TRIPα (white bars) or GFP (black bars) and differentiated with NGF (50 ng/ml). Serum was added and neurite retraction was followed for 15 minutes. The number of transfected cells with neurites was counted from at least 200 cells in 3 independent experiments.
(§1) Since Trio is an activator of RhoA and is expressed in PC12 cells (Estrach et al., 2002), it was analysed whether TRIPα could interfere with serum-induced neurite retraction in NGF-differentiated PC12 cells. […] After NGF treatment, cells were subjected to serum addition (DMEM medium supplemented with 10% HS and 5% fetal calf serum (FCS)) from 0 to 15 min (FIG. 6A). Cells were then fixed and permeabilised (Estrach et al., 2002) and observed as described in FIG. 5. Cells with neurites are defined as cells with neurites of at least twice the length of the cell body.

PC12 cells = experiment: NGF-induced neurite outgrowth; settings: NGF 50 ng/ml, 1 to 24 hours
Procedure: PC12 were transfected with GFP-TRIPα (lack squares) or GFP (white diamonds) and subjected to a time-course exposure to NGF (50 ng/ml). At each time-point cells were fixed and the number of transfected cells with neurites was counted from at least 200 cells.
as §1
However, since the NGF treatment was performed for 16 hours, it was still possible that the effect of TRIPα on the NGF-differentiation signal was masked by the long NGF exposure. To test this hypothesis, PC12 cells expressing GFP-TRIPα or […] were subjected to a time-course exposure to NGF (50 ng/ml) for 1 to 24 hours.

KalGEFD2 in PC12 cells = experiment: NGF-induced neurite outgrowth in PC12 cells expressing KalGEFD2; settings: PC12 co-transfected with KalGEFD2, NGF 50 ng/ml
Description: (§2) Cells were transfected with HA-tagged TrioGEFD2 (left side of the figure), myc-tagged KalGEFD2 (middle of the figure) or RhoAV14 (a constitutively active mutant of RhoA) (right side of the figure), and with either GFP-TRIPα (white bars), GFP-TRIPβ (hatched bars) or GFP alone (black bars). Cells were processed as described in FIG. 5C and the number of co-transfected cells with neurites was counted.
(§3) Numerous reports have established Rho-GTPases as key regulators of neuronal morphology (Luo, 2000). In neuronal cell lines, activation of RhoG, Rac and Cdc42 induces neurite outgrowth, while RhoA stimulation antagonises this effect by promoting neurite retraction (Katoh et al., 2000; Kozma et al., 1997; Yamaguchi et al., 2001). The PC12 cell line is a useful cellular model for studying Nerve Growth Factor (NGF)-induced neuronal differentiation. PC12-E2 cells were plated on collagen-coated 12 mm coverslips as described previously (Estrach et al., 2002) and transfected with the Lipofectamine Plus reagent (Life Technologies) according to the manufacturer's instructions. […] Images were recorded using a Hamamatsu CCD camera. All transfections were repeated at least three times, and an average of 200 cells was counted each time. […]

[2] = system: ectopically expressed TrioGEFD2 in PC12 cells; experiment: NGF-induced neurite outgrowth in PC12 cells expressing TrioGEFD2; settings: PC12 co-transfected with TrioGEFD2, NGF 50 ng/ml 16 hours
Procedure: FIG. 5C represents the inhibition by TRIPα of the TrioGEFD2 effect in neuronal morphology. Immunofluorescence images of PC12 cells co-transfected with HA-TrioGEFD2 and either GFP-TRIPα (panels d, e, f) or GFP alone panels a, b, c) are shown. After 48 hours of expression, cells were treated for 16 hours with NGF (nerve growth factor) (50 ng/ml) and fixed. Expression of GFP and GFP-TRIPα was directly visualised (a, d) whereas overexpressed TrioGEFD2 was detected using the 12CA5 anti-HA antibody followed by AMCA-conjugated anti-mouse IgG (b, e). Filamentous actin was stained with Rhodamine-conjugated Phalloidin (c, f). Scale bar: 20 μm.
as §2
as §3, with “instructions. After transfection and differentiation with NGF (Promega, 50 ng/ml in DMEM medium supplemented with 0.5% horse serum (HS)) for 16 hours, PC12 cells were fixed and permeabilised as described (Estrach et al., 2002).” for “instructions.”

[3] = system: TrioGEFD2-mediated RhoA activation; experiment: RhoA activity assay (Rhotekin RBD pull-down) in COS cells; settings: COS cells co-transfected, 48 hours
Description: FIG. 5B represents the inhibitory effect of TRIPα on TrioGEFD2-mediated RhoA activation in intact cells using the RhoA activity assay, COS cells were transfected with GFP-TRIPα (left line), TrioGEFD2 (middle line) or both (right line). Cell lysates were subjected to GST-pulldown using the recombinant RBD (RhoA binding domain) fragment of the RhoA-specific effector Rhotekin. The presence of the GTP-bound form of RhoA and of the total RhoA protein was detected using a monoclonal anti-RhoA antibody and is represented in the upper two panels. GFP-TRIPα and TrioGEFD2 expression in the cell lysates is shown in the lower two panels.
Quantification of the RhoA activity assay is shown in the right part of the figure. The y-axis represents the ratio between active RhoA and total RhoA, in arbitrary units.
The Inventors then wanted to assess the inhibition by TRIPα of TrioGEFD2-mediated activation of endogenous RhoA in intact cells. To do so, the RhoA activity assay was used to detect the active GTP-bound form of RhoA (Ren et al., 1999). Briefly, COS cells were transfected as described in FIG. 5A with TrioGEFD2 in absence or in the presence of GFP-TRIAPα. 48 hours after transfection, cell lysates were subjected to GST-pull down using 20 μg of the recombinant RBD (RhoA binding domain) fragment of the RhoA-specific effector Rhotekin, that binds only to the activated GTP-bound form of RhoA.

## GFP-TRIPα: variable region of TRIAPα (TRIPα) fused to GFP, expressed from pEGFP-C3 plasmid (AREGADGAICGYNLATLVMLGPSERVFCPLCEPCSSDIYELM; cysteine pairing not given here; also: fused to GFP (carrier not in chain))
[1]
  percentage of transfected cells with neurites after serum addition: 32%
PC12 cells
  Effect on NGF-induced neurite outgrowth, time course: responded to NGF treatment more quickly than the control cells
KalGEFD2 in PC12 cells
  Effect on KalGEFD2 inhibition of NGF-induced neurite extension: similarly inhibited by KalGEFD2 either with or without
[2]
  Reversion of TrioGEFD2 inhibition of NGF-induced neurite outgrowth: reverted the Trio-dependent inhibition
  percentage of co-transfected cells with neurites: 45%
[3]
  Inhibition of TrioGEFD2-mediated RhoA activation in intact cells: significantly inhibited
